The values that follow come from patent EP2756852A1, “Heparin-lipidic nanoparticle conjugates” (Centre de Recerca en Salut Internacional de Barcelona, priority 2013, dated 2014).

“Also recorded” adds a separate entry of the source.

The subject of series [1] is healthy cells. In words: Unspecific cytotoxicity assay (WST-1). In kind it is cell-based. To be noted: DOTAP concentration up to 200 µM; 24 or 48 h at 37°C; WST-1, absorbance at 440 nm. As to the method:
Cells were seeded in 96-well plates at a density of 5000 cells/100 µl/well, and incubated for 24 hours at 37°C in Medium 199 with Earle's Salts, supplemented with L-glutamine and FBS (PAA Laboratories GmbH). After that time the medium was carefully removed with a pipette and 90 µL of new medium (without FBS in this case) were added, followed by 10 µL of the sample to be analysed, which consisted of a solution of DOTAP 200 µM in PBS. It is advisable to prepare the sample dilutions in a 9:1 proportion (9 µl media:1 µl sample). After incubating for either 24 or 48 h at 37°C, 10 µL of WST-1 reagent were added, and after incubating for 1 h at 37°C absorbance at 440 nm was measured.

Series [2] concerns P. falciparum 3D7 strain. The series is described as follows: Plasmodium falciparum growth inhibition assay (parasitemia by blood smear counting or FACS). In kind it is cell-based. Conditions: expressed with respect to non-treated pRBC, 48 h, liposomes 50 µM total lipid, primaquine 3 µM final in culture. The procedure:
For culture maintenance, parasitemias were kept below 5% late forms by dilution with washed RBCs.
150 µL of this Plasmodium culture was plated in 96-well plates and incubated in the presence of liposomes for 48 h in the conditions described above.
Parasitemia was determined by microscopic counting of blood smears, or by fluorescence-assisted cell sorting (FACS). Smears were fixed in methanol for a few seconds and then stained for ten minutes with Giemsa (Merck Chemicals, Germany) diluted 1:10 in Sorenson's Buffer, pH 7.2. […] Samples were analyzed using an Epics XL flow cytometer (Coulter Corporation, Miami, Florida), set up with the standard configuration. Excitation of the sample was done using a standard 488 nm air-cooled argon-ion laser at 15 mW power. Forward scatter and side scatter were used to gate the RBC population. […] The single-cell population was selected on a forward-side scatter scattergram, and the fluorescence from this population was analyzed. Parasitemia was expressed as the number of parasitized cells per 100 erythrocytes.
Parasitemia was determined by microscopic counting of blood smears, or by fluorescence-assisted cell sorting (FACS).

In the case of `CCCCCCCC/C=C\CCCCCCCC(=O)OCC(C[N+](C)(C)C)OC(=O)CCCCCCC/C=C\CCCCCCCC` (stereo not shown) [DOTAP, 1,2-dioleoyl-3-trimethylammonium-propane], in series [1], the cytotoxicity result is “not toxic; also recorded: not observed”.
As for `COc1cc(NC(C)CCCN)c2ncccc2c1` (stereo not shown) [PQ, primaquine], the parasitemia is 24.8% in series [2] (Example 1, FIG. 2); 45.8% in series [2] (Example 2, FIG. 3); 46.4% in series [2] (Example 3, FIG. 4).
